Measured values published in ChEMBL document CHEMBL1201861, “Genomics of Drug Sensitity in Cancer screening data, Wellcome Trust Sanger Institute”.

Legend:
Assay in all cases: cells
Assay type in all cases: functional, cell-based, Homo sapiens
[1] = system: D-336MG; details: Homo sapiens, D-336MG
Description: SANGER: Inhibition of human D-336MG cell growth in a cell viability assay.

[2] = system: OE19; details: Homo sapiens, OE19;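 note: growth inhibition of OE19 cells, measured through a cell viability read-out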
Description: SANGER: Inhibition of human OE19 cell growth in a cell viability assay.

[3] = system: SW626; details: Homo sapiens, SW626;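 note: growth inhibition of SW626 cells, measured with a cell viability assay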
Description: SANGER: Inhibition of human SW626 cell growth in a cell viability assay.

[4] = system: J82; details: Homo sapiens, J82;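 note: growth inhibition of J82 cells, read out with a cell viability assay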
Description: SANGER: Inhibition of human J82 cell growth in a cell viability assay.

[5] = system: CAPAN-1; details: Homo sapiens, CAPAN-1;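 note: growth suppression of CAPAN-1 cells, read out by a cell viability assay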
Description: SANGER: Inhibition of human CAPAN-1 cell growth in a cell viability assay.

[6] = system: C3A; details: Homo sapiens, C3A;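 note: growth inhibition of C3A human cells, quantified with a cell viability readout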
Description: SANGER: Inhibition of human C3A cell growth in a cell viability assay.

[7] = system: EW-22; details: Homo sapiens, EW-22;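 note: growth inhibition of the EW-22 cell line, measured with a cell viability readout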
Description: SANGER: Inhibition of human EW-22 cell growth in a cell viability assay.

[8] = system: BCPAP; details: Homo sapiens, BCPAP;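 note: growth inhibition of BCPAP cells, read out in a cell viability assay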
Description: SANGER: Inhibition of human BCPAP cell growth in a cell viability assay.

[9] = system: RD; details: Homo sapiens, RD
Description: SANGER: Inhibition of human RD cell growth in a cell viability assay.

[10] = system: BT-20; details: Homo sapiens, BT-20;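 note: cell viability assay measuring suppression of growth in human BT-20 cells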
Description: SANGER: Inhibition of human BT-20 cell growth in a cell viability assay.

[11] = system: NCI-H650; details: Homo sapiens, NCI-H650;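 note: growth inhibition of NCI-H650 cells, read out by a viability assay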
Description: SANGER: Inhibition of human NCI-H650 cell growth in a cell viability assay.

[12] = system: NCI-H1623; details: Homo sapiens, NCI-H1623;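 note: cell viability assay used as the read-out for growth inhibition of NCI-H1623 cells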
Description: SANGER: Inhibition of human NCI-H1623 cell growth in a cell viability assay.

[13] = system: SW948; details: Homo sapiens, SW948;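 note: growth inhibition of SW948 cells, read out with a cell viability assay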
Description: SANGER: Inhibition of human SW948 cell growth in a cell viability assay.

[14] = system: EFO-27; details: Homo sapiens, EFO-27;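 note: growth inhibition of EFO-27 cells, read out with a cell viability assay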
Description: SANGER: Inhibition of human EFO-27 cell growth in a cell viability assay.

[15] = system: DMS-273; details: Homo sapiens, DMS-273
Description: SANGER: Inhibition of human DMS-273 cell growth in a cell viability assay.

[16] = system: FaDu; details: Homo sapiens, FaDu;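 note: cell viability readout of growth inhibition in FaDu cells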
Description: SANGER: Inhibition of human FADU cell growth in a cell viability assay.

[17] = system: NCI-H2452; details: Homo sapiens, NCI-H2452;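 note: growth inhibition of NCI-H2452 cells, read out with a cell viability assay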
Description: SANGER: Inhibition of human NCI-H2452 cell growth in a cell viability assay.

[18] = system: AGS; details: Homo sapiens, AGS;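 note: growth inhibition of AGS cells, determined with a cell viability assay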
Description: SANGER: Inhibition of human AGS cell growth in a cell viability assay.

[19] = system: TCC-SUP; details: Homo sapiens, TCC-SUP;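 note: growth inhibition of TCC-SUP cells, read out with a cell viability assay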
Description: SANGER: Inhibition of human TCCSUP cell growth in a cell viability assay.

[20] = system: P12-Ichikawa; details: Homo sapiens, P12-Ichikawa
[21] = system: NB14; details: Homo sapiens, NB14;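 note: growth inhibition of NB14 cells measured with a cell viability assay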
Description: SANGER: Inhibition of human NB14 cell growth in a cell viability assay.

[22] = system: CAL-72; details: Homo sapiens, CAL-72;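 note: cell viability assay measuring inhibition of proliferation in the CAL-72 cell line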
Description: SANGER: Inhibition of human CAL-72 cell growth in a cell viability assay.

[23] = system: NCI-H2405; details: Homo sapiens, NCI-H2405;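 note: growth inhibition of the human cell line, read out with a cell viability assay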
Description: SANGER: Inhibition of human NCI-H2405 cell growth in a cell viability assay.

[24] = system: HCC1395; details: Homo sapiens, HCC1395;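 note: growth inhibition of HCC1395 cells, read out by a cell viability assay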
Description: SANGER: Inhibition of human HCC1395 cell growth in a cell viability assay.

[25] = system: RERF-LC-MS; details: Homo sapiens, RERF-LC-MS;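 note: growth inhibition of human RERF-LC-MS cells, read out by a cell viability assay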
Description: SANGER: Inhibition of human RERF-LC-MS cell growth in a cell viability assay.

[26] = system: 5637; details: Homo sapiens
Description: SANGER: Inhibition of human 5637 cell growth in a cell viability assay.

[27] = system: NCI-H441; details: Homo sapiens, NCI-H441;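 note: growth inhibition of NCI-H441 cells, read out with a cell viability assay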
Description: SANGER: Inhibition of human NCI-H441 cell growth in a cell viability assay.

[28] = system: 8305C; details: Homo sapiens, 8305C
Description: SANGER: Inhibition of human 8305C cell growth in a cell viability assay.

[29] = system: HCC1419; details: Homo sapiens, HCC1419;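 note: growth inhibition of human HCC1419 cells, read out as cell viability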
Description: SANGER: Inhibition of human HCC1419 cell growth in a cell viability assay.

[30] = system: HTC-C3; details: Homo sapiens, HTC-C3;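 note: inhibition of cell growth, read out with a cell viability assay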
Description: SANGER: Inhibition of human HTC-C3 cell growth in a cell viability assay.

[31] = system: SW1710; details: Homo sapiens, SW1710;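 note: growth inhibition of SW1710 cells, determined with a cell viability assay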
Description: SANGER: Inhibition of human SW1710 cell growth in a cell viability assay.

[32] = system: SKG-IIIa; details: Homo sapiens, SKG-IIIa;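 note: cell growth inhibition, read out with a cell viability assay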
Description: SANGER: Inhibition of human SKG-IIIa cell growth in a cell viability assay.

[33] = system: SW48; details: Homo sapiens, SW48;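 note: growth inhibition of SW48 cells, read out with a cell viability assay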
Description: SANGER: Inhibition of human SW48 cell growth in a cell viability assay.

[34] = system: SiHa; details: Homo sapiens, SiHa;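 note: Viability-based readout of growth inhibition in SiHa cells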
Description: SANGER: Inhibition of human SiHa cell growth in a cell viability assay.

[35] = system: T-24; details: Homo sapiens, T-24;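 note: growth inhibition of T-24 cells, read out with a cell viability assay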
Description: SANGER: Inhibition of human T-24 cell growth in a cell viability assay.

[36] = system: CAL-120; details: Homo sapiens, CAL-120;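 note: cell growth inhibition, read out as cell viability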
Description: SANGER: Inhibition of human CAL-120 cell growth in a cell viability assay.

[37] = system: KU-19-19; details: Homo sapiens, KU-19-19
Description: SANGER: Inhibition of human KU-19-19 cell growth in a cell viability assay.

[38] = system: 23132-87; details: Homo sapiens
Description: SANGER: Inhibition of human 23132-87 cell growth in a cell viability assay.

Compound	IC50 [1] [µM]	IC50 [2] [µM]	IC50 [3] [µM]	IC50 [4] [µM]	IC50 [5] [µM]	IC50 [6] [µM]	IC50 [7] [µM]	IC50 [8] [µM]	IC50 [9] [µM]	IC50 [10] [µM]	IC50 [11] [µM]	IC50 [12] [µM]	IC50 [13] [µM]	IC50 [14] [µM]	IC50 [15] [µM]	IC50 [16] [µM]	IC50 [17] [µM]	IC50 [18] [µM]	IC50 [19] [µM]	IC50 [21] [µM]	other results
COc1cc2c(Nc3ccc(NC(=O)c4ccccc4)cc3)ncnc2cc1OCCCN1CCOCC1	> 4	> 4	> 4	> 4	> 4	> 4	3.18	> 4	> 4	> 4	> 4	> 4	> 4	> 4	> 4	> 4	> 4	> 4	> 4	1.56	IC50 [20]: 0.224 µM; IC50 [22]: > 4 µM; IC50 [23]: > 4 µM; IC50 [24]: > 4 µM; IC50 [25]: > 4 µM; IC50 [26]: > 4 µM; IC50 [27]: > 4 µM; IC50 [28]: > 4 µM; IC50 [29]: > 4 µM; IC50 [30]: > 4 µM; IC50 [31]: > 4 µM; IC50 [32]: > 4 µM; IC50 [33]: 1.23 µM; IC50 [34]: > 4 µM; IC50 [35]: > 4 µM; IC50 [36]: > 4 µM; IC50 [37]: > 4 µM
CC(C)c1ccccc1Cc1cc(C(=O)Nc2ccc(S(=O)(=O)c3ccccc3C(C)(C)C)cc2)c(O)c(O)c1O	0.958	5.98	0.423	1.13	10.8	1.82	0.28	0.242	0.96	0.656	0.646	0.595	32.7	0.117	0.1	0.526	0.754	0.0375	0.361	0.0764	IC50 [38]: 0.324 µM; IC50 [22]: 0.968 µM; IC50 [23]: 0.675 µM; IC50 [24]: 7.11 µM; IC50 [25]: 0.0352 µM; IC50 [26]: 0.552 µM; IC50 [27]: 1.73 µM; IC50 [28]: 3.91 µM; IC50 [29]: 0.918 µM; IC50 [30]: 1.58 µM; IC50 [31]: 0.388 µM; IC50 [32]: 0.576 µM; IC50 [33]: 0.238 µM; IC50 [34]: 0.261 µM; IC50 [35]: 0.295 µM; IC50 [36]: 0.479 µM; IC50 [37]: 0.44 µM
CC(C)CCN1c2nc(Nc3cc(F)c(O)c(F)c3)ncc2N(C)C(=O)C1C (configuration not stated)	> 5	> 5	4.9	> 5	> 5	> 5	> 5	> 5	3.43	> 5	> 5	> 5	> 5	> 5	> 5	> 5	> 5	2.34	> 5	2.11	IC50 [38]: > 5 µM; IC50 [20]: 2.53 µM; IC50 [22]: > 5 µM; IC50 [23]: > 5 µM; IC50 [24]: > 5 µM; IC50 [25]: > 5 µM; IC50 [26]: 4.61 µM; IC50 [27]: > 5 µM; IC50 [28]: 3.89 µM; IC50 [29]: > 5 µM; IC50 [30]: > 5 µM; IC50 [31]: 2.31 µM; IC50 [32]: > 5 µM; IC50 [33]: 3.43 µM; IC50 [34]: > 5 µM; IC50 [35]: > 5 µM; IC50 [36]: > 5 µM; IC50 [37]: 3.6 µM
